Measured values taken from patent US12239686B2, “Immune checkpoint inhibitor combinations” (LYTIX BIOPHARMA AS, priority 2014, dated 2025).
Non-standard residues stand in square brackets, D forms with d. Residues, ends and D or L forms follow the SMILES beside them. Dip = N[C@H](C(=O)O)C(c1ccccc1)c1ccccc1

Legend:
[1] = tested on: A375 cells; experiment: Release of HMGB1, Western blot of lysate and supernatant; type: cell-based, human; conditions: 35 μM, 5-60 min
Method: A375 cells were seeded with 3×10^5 cells/well in 6-well plates in a complete media, and allowed to adhere overnight. Cells were treated with LTX-315 or LTX-328 at 35 μM, and incubated at 37° C. and 5% CO2 for different time points (5, 10, 15, 30, 60 min), and negative controls were serum-free RPMI-1650. Supernatants (S) were collected and centrifuged at 1,400 g for five minutes, and cell lysates (L) were harvested after washing with PBS twice and then subsequently lysed using a 4× Sample buffer (Invitrogen, number), 0.1 M DTT (Sigma number) and water. Supernatants were concentrated using Amicon Ultra 50K centrifugal filters (Millipore UFC505024), and the cell lysate was sonicated. Both supernatants and lysate were boiled and resolved in a 10% sodium dodecyl sulfate polyacrylamide gel electrophoresis (SDS-PAGE), and then electro transferred to a polyvindiline difluoride (PVDF) membrane (Millipore). The membrane was blocked in 5% milk and incubated with the HMGB1 antibody (rabbit, polyclonal, abcam ab 18256); the membrane was then rinsed several times with TBST, incubated with a horseradish peroxidase (HRP)-conjugated secondary antibody (abcam ab6721), rinsed again with TBST and then developed using WB Luminol Reagent (Santa Cruz Biotechnology, Heidelberg, Germany).

[2] = tested on: A375 melanoma cells; experiment: Live cell imaging, bright field confocal microscopy; type: cell-based, human; conditions: at an IC-50 value, majority of the cells
Method: Live cell imaging with unlabeled cells-A375 cells were seeded at 10,000 cells/well in a complete media in Nunc Lab-Tec 8-wells chambered covered glass (Sigma) precoated with 25 μg/ml human fibronectin (Sigma) that were allowed to adhere overnight. Cells were washed twice with a serum-free RPMI, treated with peptide dissolved in RPMI and investigated using Bright on a Leica TCS SP5 confocal microscope, with a 63X/1.2W objective. The microscope was equipped with an incubation chamber with CO2 and temperature control.

For `NCCCC[C@H](NC(=O)[C@@H](NC(=O)[C@H](Cc1c[nH]c2ccccc12)NC(=O)[C@H](CCCCN)NC(=O)[C@H](CCCCN)NC(=O)[C@H](Cc1c[nH]c2ccccc12)NC(=O)[C@H](Cc1c[nH]c2ccccc12)NC(=O)[C@H](CCCCN)NC(=O)[C@@H](N)CCCCN)C(c1ccccc1)c1ccccc1)C(N)=O` [LTX-315, K-K-W-W-K-K-W-Dip-K-NH2] (H-KKWWKKW[Dip]K-NH2), the “HMGB1 translocation from cell lysate to supernatant” value [1] was “gradual translocation from the cell lysate to the supernatant detected” and the “time to cell collapse with extrusion of cytoplasmic content” value [2] was 15 to 60 min.
